Numbers after ± are expanded uncertainties.
Settings: 293.15 K; 101.33 kPa; Crystal; Pycnometric method

molar volume: 0.0004982 ± 1e-05 m3/mol
Structure (SMILES): C=CC1=C(C(=O)O)N2C(=O)[C@@H](NC(=O)/C(=N\OCC(=O)O)c3csc(N)n3)[C@H]2SC1.O.O.O [cefixime trihydrate]

Reference: the NIST ThermoML archive (doi:10.1021/je5000605)
